These results are taken from patent US8404692B2, “Pyrimidin-4-yl-3, 4-dihydro-2H-pyrrolo [1,2A] pyrazin-1-one compounds” (Cyclacel Limited, priority 2005, dated 2013).

In the assay the target is T1, aurora-A (human) (Homo sapiens, UniProt O14965).
T1 construct: purchased Upstate, Dundee, UK
T1 sequence (O14965 1-403): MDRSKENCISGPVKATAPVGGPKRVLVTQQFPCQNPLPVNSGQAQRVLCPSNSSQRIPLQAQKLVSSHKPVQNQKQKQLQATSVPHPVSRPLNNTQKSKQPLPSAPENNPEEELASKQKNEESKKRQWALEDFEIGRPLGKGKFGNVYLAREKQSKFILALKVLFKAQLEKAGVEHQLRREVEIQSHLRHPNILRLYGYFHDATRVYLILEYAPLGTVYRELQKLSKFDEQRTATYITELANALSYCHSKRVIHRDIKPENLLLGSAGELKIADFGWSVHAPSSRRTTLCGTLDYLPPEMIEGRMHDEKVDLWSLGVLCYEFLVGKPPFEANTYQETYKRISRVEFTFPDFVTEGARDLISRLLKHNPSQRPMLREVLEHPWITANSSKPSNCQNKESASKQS
The experiment in a line: Aurora-A (human) kinase assay. In kind it is biochemical. The note with it: read-out: Activity (Aurora A activity, IC50 grading). The method, then:
This was achieved by measurement of incorporation of radioactive phosphate from ATP into Kemptide substrate (LRRASLG), upon phosphorylation by commercially obtained aurora-A (human, Upstate; Dundee, UK). Assays were performed using 96-well plates and appropriate assay buffers (20 mM Tris, 25 mM β-glycerophosphate, 5 mM EGTA, 1 mM DTT, 1 mM sodium vanadate, pH 7.5), into which were added 2-5 ng of active enzyme with 500 μM substrate (Kemptide). The reactions were initiated by addition of MATP mix (15 mM MgCl2+100 μM ATP with 15-25 kBq per well of [γ-^32P]-ATP) and mixtures incubated for 30 min at 30° C. Reactions were stopped by addition of an equal volume of 75 mM aq orthophosphoric acid, followed by filtration through p81 filterplates (Whatman Polyfiltronics, Kent, UK). After washing 4 times with 75 mM aq orthophosphoric acid, plates were dried, scintillant added and incorporated radioactivity measured in a scintillation counter (TopCount, Packard Instruments, Pangbourne, Berks, UK). Compounds for kinase assay were made up as 10 mM stocks in DMSO and diluted into 10% DMSO in assay buffer. Data was analysed using curve-fitting software (XLfit version 4.0.2, IDBS, Guildford, Surrey, UK) to determine IC50 values (concentration of test compound which inhibits kinase activity by 50%).
As a reminder, the IC50 is the concentration at which inhibition is half-maximal. Turning to `Cc1c(-c2ccnc(Nc3ccc(N4CCSCC4)cc3)n2)c(C)n2c1C(=O)NCC2` [Example I-37, 6,8-Dimethyl-7-[2-(4-thiomorpholin-4-yl-phenylamino)-pyrimidin-4-yl]-3,4-dihydro-2H-pyrrolo[1,2-a]pyrazin-1-one], the IC50 is below 1000 nM.

As to `CCN(CC)CCCNS(=O)(=O)c1ccc(Nc2nccc(-c3c(C)c4n(c3C)CCNC4=O)n2)cc1C` [Example I-21, N-(3-Diethylamino-propyl)-4-[4-(6,8-dimethyl-1-oxo-1,2,3,4-tetrahydro-pyrrolo[1,2-a]pyrazin-7-yl)-pyrimidin-2-ylamino]-2-methyl-benzenesulfonamide], the IC50 is below 10000 nM.

In the case of `COCCNS(=O)(=O)c1ccc(Nc2nccc(-c3c(C)c4n(c3C)CCNC4=O)n2)cc1` [Example I-38, 4-[4-(6,8-Dimethyl-1-oxo-1,2,3,4-tetrahydro-pyrrolo[1,2-a]pyrazin-7-yl)-pyrimidin-2-ylamino]-N-(2-methoxy-ethyl)-benzenesulfonamide], the concentration for half-maximal inhibition (IC50) was below 1000 nM.

Regarding `CCN(CC)c1ccc(Nc2nccc(-c3c(C)c4n(c3C)CCNC4=O)n2)cc1` [Example I-13, 7-[2-(4-Diethylamino-phenylamino)-pyrimidin-4-yl]-6,8-dimethyl-3,4-dihydro-2H-pyrrolo[1,2-a]pyrazin-1-one], the IC50 was below 1000 nM.

`Cc1c(-c2ccnc(Nc3cccc(S(=O)(=O)N4CCCCC4)c3)n2)c(C)n2c1C(=O)NCC2` [Example I-95c, 6,8-Dimethyl-7-{2-[3-(piperidine-1-sulfonyl)-phenylamino]-pyrimidin-4-yl}-3,4-dihydro-2H-pyrrolo[1,2-a]pyrazin-1-one]: the IC50 is below 10000 nM.

`Cc1ccc(Oc2ccc(Nc3nccc(-c4c(C)c5n(c4C)CCNC5=O)n3)cc2)cc1` [Example I-89, 6,8-Dimethyl-7-[2-(4-p-tolyloxy-phenylamino)-pyrimidin-4-yl]-3,4-dihydro-2H-pyrrolo[1,2-a]pyrazin-1-one]: the IC50 is below 10000 nM.

Turning to `CNC(=O)CCc1cccc(Nc2nccc(-c3c(C)c4n(c3C)CCNC4=O)n2)c1` [Example I-112, 3-{3-[4-(6,8-Dimethyl-1-oxo-1,2,3,4-tetrahydro-pyrrolo[1,2-a]pyrazin-7-yl)-pyrimidin-2-ylamino]-phenyl}-N-methyl-propionamide], the concentration for half-maximal inhibition (IC50) was below 100 nM.

Regarding `Cc1c(-c2ccnc(Nc3cccc(CCC(=O)N(C)CCN(C)C)c3)n2)c(C)n2c1C(=O)NCC2` [Example I-106, N-(2-Dimethylamino-ethyl)-3-{3-[4-(6,8-dimethyl-1-oxo-1,2,3,4-tetrahydro-pyrrolo[1,2-a]pyrazin-7-yl)-pyrimidin-2-ylamino]-phenyl}-N-methyl-propionamide], the IC50 was below 1000 nM.

On to `Cc1c(-c2ccnc(Nc3ccc(N(C)C)cc3)n2)c(C)n2c1C(=O)NCC2` [Example I-6, 7-[2-(4-Dimethylamino-phenylamino)-pyrimidin-4-yl]-6,8-dimethyl-3,4-dihydro-2H-pyrrolo[1,2-a]pyrazin-1-one], for which the IC50 is below 1000 nM.

With `Cc1c(-c2ccnc(Nc3ccc(-c4csc(CC(N)=O)n4)cc3)n2)c(C)n2c1C(=O)NCC2` [Example I-83, 2-(4-{4-[4-(6,8-Dimethyl-1-oxo-1,2,3,4-tetrahydro-pyrrolo[1,2-a]pyrazin-7-yl)-pyrimidin-2-ylamino]-phenyl}-thiazol-2-yl)-acetamide], the IC50 was below 1000 nM.

On to `COc1ccc(Nc2nccc(-c3c(C)c4n(c3C)CCNC4=O)n2)cc1Cl` [Example I-67, 7-[2-(3-Chloro-4-methoxy-phenylamino)-pyrimidin-4-yl]-6,8-dimethyl-3,4-dihydro-2H-pyrrolo[1,2-a]pyrazin-1-one], for which the IC50 was below 100 nM.

For the compound `COc1cc(C(=O)O)ccc1Nc1nccc(-c2c(C)c3n(c2C)CCNC3=O)n1` [Example I-27, 4-[4-(6,8-Dimethyl-1-oxo-1,2,3,4-tetrahydro-pyrrolo[1,2-a]pyrazin-7-yl)-pyrimidin-2-ylamino]-3-methoxy-benzoic acid], the IC50 was below 1000 nM.

Consider `Cc1c(-c2ccnc(Nc3cccc(S(=O)(=O)CCO)c3)n2)c(C)n2c1C(=O)NCC2` [Example I-15, 7-{2-[3-(2-Hydroxy-ethanesulfonyl)-phenylamino]-pyrimidin-4-yl}-6,8-dimethyl-3,4-dihydro-2H-pyrrolo[1,2-a]pyrazin-1-one], for which the IC50 was below 1000 nM.

On to `CC(=O)N1CCN(C(=O)Cc2ccc(Nc3nccc(-c4c(C)c5n(c4C)CCNC5=O)n3)cc2)CC1` [Example I-100, 7-(2-{4-[2-(4-Acetyl-piperazin-1-yl)-2-oxo-ethyl]-phenylamino}-pyrimidin-4-yl)-6,8-dimethyl-3,4-dihydro-2H-pyrrolo[1,2-a]pyrazin-1-one], for which the IC50 was below 1000 nM.

On to `Cc1c(-c2ccnc(Nc3cccc(O)c3)n2)c(C)n2c1C(=O)NCC2` [Example I-31, 7-[2-(3-Hydroxy-phenylamino)-pyrimidin-4-yl]-6,8-dimethyl-3,4-dihydro-2H-pyrrolo[1,2-a]pyrazin-1-one], for which the IC50 was below 1000 nM.

Take `Cc1c(-c2ccnc(Nc3ccc(S(=O)(=O)N4CCCCC4)cc3)n2)c(C)n2c1C(=O)NCC2` [Example I-56, 6,8-Dimethyl-7-{2-[4-(piperidine-1-sulfonyl)-phenylamino]-pyrimidin-4-yl}-dihydro-2H-pyrrolo[1,2-a]pyrazin-1-one]: the IC50 is below 100 nM.

Consider `COc1ccc(Nc2nccc(-c3c(C)c4n(c3C)CCNC4=O)n2)cc1O` [Example I-28, 7-[2-(3-Hydroxy-4-methoxy-phenylamino)-pyrimidin-4-yl]-6,8-dimethyl-3,4-dihydro-2H-pyrrolo[1,2-a]pyrazin-1-one], for which the IC50 is below 1000 nM.

Turning to `COc1ccc(Nc2nccc(-c3c(C)c4n(c3C)CCNC4=O)n2)cc1` [Example I-4, 7-[2-(4-Methoxy-phenylamino)-pyrimidin-4-yl]-6,8-dimethyl-3,4-dihydro-2H-pyrrolo[1,2-a]pyrazin-1-one], the IC50 is below 1000 nM.

For the compound `Cc1c(-c2ccnc(Nc3ccc(-c4cn5c(n4)SCC5)cc3)n2)c(C)n2c1C(=O)NCC2` [Example I-75, 7-{2-[4-(2,3-Dihydro-imidazo[2,1-b]thiazol-6-yl)-phenylamino]-pyrimidin-4-yl}-6,8-dimethyl-3,4-dihydro-2H-pyrrolo[1,2-a]pyrazin-1-one], the IC50 is below 100 nM.

On to `Cc1c(-c2ccnc(Nc3ccc(CC(=O)N(C)CCN(C)C)cc3)n2)c(C)n2c1C(=O)NCC2` [Example I-97, N-(2-Dimethylamino-ethyl)-2-{4-[4-(6,8-dimethyl-1-oxo-1,2,3,4-tetrahydro-pyrrolo[1,2-a]pyrazin-7-yl)-pyrimidin-2-ylamino]-phenyl}-N-methyl-acetamide], for which the IC50 is below 1000 nM.

As to `CC(=O)N1CCN(c2ccc(Nc3nccc(-c4c(C)c5n(c4C)CCNC5=O)n3)cc2C)CC1` [Example I-8, 7-{2-[4-(4-Acetyl-piperazin-1-yl)-3-methyl-phenylamino]-pyrimidin-4-yl}-6,8-dimethyl-3,4-dihydro-2H-pyrrolo[1,2-a]pyrazin-1-one], the IC50 is below 1000 nM.

For the compound `Cc1c(-c2ccnc(Nc3cccc(-c4cncnc4)c3)n2)c(C)n2c1C(=O)NCC2` [Example I-53, 6,8-Dimethyl-7-[2-(3-pyrimidin-5-yl-phenylamino)-pyrimidin-4-yl]-3,4-dihydro-2H-pyrrolo[1,2-a]pyrazin-1-one], the IC50 was below 100 nM.

For the compound `Cc1c(-c2ccnc(Nc3ccc(Br)cc3)n2)c(C)n2c1C(=O)NCC2` [Example I-14, 7-[2-(4-Bromo-phenylamino)-pyrimidin-4-yl]-6,8-dimethyl-3,4-dihydro-2H-pyrrolo[1,2-a]pyrazin-1-one], the IC50 is below 1000 nM.

Take `COc1ccc(Cl)cc1Nc1nccc(-c2c(C)c3n(c2C)CCNC3=O)n1` [Example I-87, 7-[2-(5-Chloro-2-methoxy-phenylamino)-pyrimidin-4-yl]-6,8-dimethyl-3,4-dihydro-2H-pyrrolo[1,2-a]pyrazin-1-one]: the IC50 was below 10000 nM.

`Cc1c(-c2ccnc(Nc3cccc(NS(C)(=O)=O)c3)n2)c(C)n2c1C(=O)NCC2` [Example I-42, N-{3-[4-(6,8-Dimethyl-1-oxo-1,2,3,4-tetrahydro-pyrrolo[1,2-a]pyrazin-7-yl)-pyrimidin-2-ylamino]-phenyl}-methanesulfonamide]: the IC50 is below 1000 nM.

For `Cc1cc2cc(Nc3nccc(-c4c(C)c5n(c4C)CCNC5=O)n3)ccc2[nH]1` [Example I-48, 6,8-Dimethyl-7-[2-(2-methyl-1H-indol-5-ylamino)-pyrimidin-4-yl]-3,4-dihydro-2H-pyrrolo[1,2-a]pyrazin-1-one], the IC50 was below 1000 nM.

Turning to `CC(=O)N1CCN(c2ccc(Nc3nccc(-c4c(C)c5n(c4C)CCNC5=O)n3)cc2)CC1` [Example I-7, 7-{2-[4-(4-Acetyl-piperazin-1-yl)-phenylamino]-pyrimidin-4-yl}-6,8-dimethyl-3,4-dihydro-2H-pyrrolo[1,2-a]pyrazin-1-one], the IC50 was below 1000 nM.
